According to patent US10660928B2, “Pharmaceutical composition containing combination extracts of Moutan Root Bark, Angelica Dahurica Root, bupleurum root or fractions thereof for prevention and treatment of neurodegenerative disorder” (UNIVERSITY-INDUSTRY COOPERATION GROUP OF KYUNG HEE …, priority 2014, dated 2020):

What was measured:
BV2 cells [1] = assay: MTT assay, LPS-induced inflammatory response; format: cell-based, mouse; conditions: BV2, treatment 1.0 μg/ml, inducer LPS 100 ng/ml
Description: Particularly, BV2 cells were cultured by the same manner as described in Experimental Example <3-1>. Then, the cultured cells were transferred into a serum free medium at the density of 1×10^5 cells/well. The cells were treated with the Bupleurum Root 90% ethanol extract prepared in Example <1-3>, saikosaponin A, saikosaponin B2, saikosaponin B4, or saikosaponin D at the concentration of 1.0 μg/ml, followed by culture for 4 hours. The cells were then treated with 100 ng/ml of lipopolysaccharide (LPS), followed by culture for 20 hours to induce inflammatory response. MTT assay was performed with the cells induced with inflammatory response by the same manner as described in Experimental Example <1-2>. The damage of mitochondria complex 1 was confirmed to see how the damage level was either increased or decreased, compared with the normal control group treated with DMSO without the extract or its active component. In the meantime, the negative control group was treated with 100 ng/ml of LPS alone to induce inflammatory response and was not treated with the extract or its active component. Then, MTT assay was performed by the same manner as described above.

BV2 cells [2] = assay: Griess method, nitric oxide in medium of LPS-induced cells; format: cell-based, mouse; conditions: BV2, treatment 1.0 μg/ml, inducer LPS 100 ng/ml
Description: Particularly, BV2 cells were cultured by the same manner as described in Experimental Example <3-1>, and inflammatory response was induced. Then, 100 μl of the cell culture medium was obtained, to which 100 μl of Griess reagent comprising hydrochloric acid containing 5% sulfanilamide and 2% naphthylethylenediamine was added, followed by reaction in a dark room for 30 minutes. Upon completion of the reaction, OD540 was measured with an EISA microplate reader (Versamax, USA). The concentration of nitric oxide in the medium was calculated using the standard calibration curve of sodium nitrite. The normal control was not treated with the extract or the active component thereof but treated with DMSO. The negative control was treated with 100 ng/ml of LPS alone to induce inflammatory response but not treated with the extract or the active component. Then, the nitric oxide concentration reduction effect was investigated by the same manner as described above.
(§1) Particularly, BV2 cells were cultured by the same manner as described in Experimental Example <3-1>, and inflammatory response was induced. Then, 100 μl of the cell culture medium was obtained, to which 100 μl of Griess reagent comprising hydrochloric acid containing 5% sulfanilamide and 2% naphthylethylenediamine was added, followed by reaction in a dark room for 30 minutes. Upon completion of the reaction, OD540 was measured with an EISA microplate reader (Versamax, USA). The concentration of nitric oxide in the medium was calculated using the standard calibration curve of sodium nitrite. To measure the ROS concentration, the cells were treated with 1 μM DCF-DA and 0.05 μM bisbenzimide (Hoechst 33342), followed by staining at 37° C. for 1 hour. After the staining, the fluorescence intensity of DCF-DA was measured at 485 nm/535 nm, and the fluorescence intensity of bisbenzimide was measured at 335 nm/460 nm. Based on the ratio of DCF-DA/bisbenzimide, ROS was quantified. The amount of ROS, either increased or decreased, was compared with that of the normal control not treated with the extract but treated with DMSO, and the results were presented as %. The negative control was treated with 100 ng/ml of LPS alone to induce inflammatory response but not treated with the extract or the active component thereof. Then, the nitric oxide concentration reduction effect and the ROS concentration reduction effect were investigated by the same manner as described above.

[3] = system: inducible nitric oxide synthase (iNOS); assay: RT-PCR of iNOS mRNA, LPS-induced cells; format: cell-based, mouse; conditions: BV2, treatment 1.0 μg/ml, LPS 100 ng/ml; negative control 100.00
Description: (§2) Particularly, BV2 cells were cultured by the same manner as described in Experimental Example <3-1>, and inflammatory response was induced. Then, RT-PCR was performed with the cells by the same manner as described in Experimental Example <1-4>, followed by quantitative analysis of the expression levels of iNOS, IL-6, and NF-kB p65/ReIA genes. The normal control was not treated with the extract of the invention or the active component thereof but treated with DMSO alone. The negative control was not treated with the extract or the active component but treated with 100 ng/ml of LPS alone to induce inflammatory response. Then, the expression of the inflammatory response marker gene was confirmed by the same manner as described above.

interleukin-6, (IL-6) = assay: RT-PCR of IL-6 mRNA, LPS-induced cells; format: cell-based, mouse; conditions: BV2, treatment 1.0 μg/ml, LPS 100 ng/ml; negative control 100.00
Description: as §2

NF-kB p65/ReIA = assay: RT-PCR of NF-kB p65/ReIA mRNA, LPS-induced cells; format: cell-based, mouse; conditions: BV2, treatment 1.0 μg/ml, LPS 100 ng/ml; negative control 100.00
Description: as §2

BV2 cells [4] = assay: DCF-DA intracellular ROS, LPS-induced cells; format: cell-based, mouse; conditions: BV2, treatment 1.0 μg/ml, inducer LPS 100 ng/ml
Description: Particularly, BV2 cells were cultured by the same manner as described in Experimental Example <3-1>, and inflammatory response was induced. Then, the cells induced with inflammatory response were treated with 1 μM DCF-DA and 0.05 μM bisbenzimide (Hoechst 33342), followed by staining at 37° C. for 1 hour. After the staining, the fluorescence intensity of DCF-DA was measured at 485 nm/535 nm, and the fluorescence intensity of bisbenzimide was measured at 335 nm/460 nm. Based on the ratio of DCF-DA/bisbenzimide, ROS was quantified. The amount of ROS, either increased or decreased, was compared with that of the normal control not treated with the extract or the active component thereof but treated with DMSO, and the results were presented as %. The negative control was treated with 100 ng/ml of LPS alone to induce inflammatory response but not treated with the extract or the active component thereof. Then, the generation of ROS was investigated by the same manner as described above.
as §1

[5] = system: SH-SY5Y, the human neuroblastoma cell line; assay: Cell survival rate (calcein) in normal cells, cytotoxicity; format: cell-based; conditions: 1 μg/ml
Description: Particularly, SH-SY5Y, the human neuroblastoma cell line, was inoculated in DMEM/F12 (Dulbeco's Modified Eagle's Medium & Ham's F12; Gibco, USA) supplemented with 10% FBS, followed by culture in a 37° C., 5% CO2/95% air (O2) incubator. Then, the cultured cells were transferred into a serum free medium at the density of 2.5×10^4 cells/well. […] The cells were collected and the cell survival rate was measured by using calcein. The survival rate of the cells that were increased or decreased compared with that of the normal control cells not-treated with the extract or its active component above and instead treated with DMSO was calculated and presented as percentage (%). Particularly, SH-SY5Y cells were cultured by the same manner as described in Experimental Example <1-1>. The cultured cells were transferred in a serum free medium at the density of 2.5×10^4 cells/well. […] The cells were collected and the cell survival rate was measured by using calcein. The cell survival rate that was increased or decreased compared with that of the normal control group not-treated with the extract or its active component above and instead treated with DMSO was calculated and presented as percentage (%).

[6] = system: SH-SY5Y, the human neuroblastoma cell line; assay: MTT assay, atrazine-induced mitochondria complex 1 damage; format: cell-based; conditions: treatment 1 μg/ml, inducer atrazine 50 μg/ml
Description: Particularly, SH-SY5Y, the human neuroblastoma cell line, was inoculated in DMEM/F12 (1:1, Dulbeco's Modified Eagle's Medium & Ham's F12; Gibco, USA) supplemented with 10% FBS, followed by culture in a 37° C., 5% CO2/95% air (O2) incubator. Then, the cultured cells were transferred into a serum free medium at the density of 1×10^5 cells/well. […] Sigma, USA), followed by culture for 4 hours. Then, the MTT formazan precipitate formed by survived cells was dissolved in 100 μl of 0.04 N HCl/isopropanol. OD540 was measured with an ELISA microplate reader (Molecular Devices, USA). The damage of mitochondria complex 1 was confirmed to see how the damage level was either increased or decreased, compared with the normal control group treated with DMSO without the extract or its active component. In the meantime, the negative control group was treated with 50 μg/ml of atrazine alone to induce mitochondrial damage and was not treated with the extract or its active component. Then, MTT assay was performed by the same manner as described above.

SH-SY5Y cells = assay: ATP assay, atrazine-induced loss of intracellular ATP; format: cell-based, human; conditions: treatment 1 μg/ml, inducer atrazine 50 μg/ml
Description: Particularly, SH-SY5Y cells were cultured by the same manner as described in Experimental Example <1-2>, to which 50 μg/ml of atrazine was treated to induce malfunction of mitochondria. Then, 100 μl of the cell lysate obtained from the cells with the malfunctioned mitochondria was mixed with 100 μl of luciferin-luciferase by using ATP bioluminescent somatic cell assay kit (Sigma, USA), followed by culture at 20° C. for 10 minutes. The supernatant was obtained. Fluorescence signal was measured by using LB 9501 Lumat luminometer (Berthold, Germany). The fluorescence of the control well containing the cell free medium was used as the background. The measured values were calculated by subtracting the background, and the amount of ATP was normalized to the protein concentration. The normal control was not treated with the extract of the invention or the active component thereof but instead treated with DMSO alone. All the results were presented as % by the normal control to present the intracellular ATP level. The negative control was treated with 50 μg/ml of atrazine alone to induce mitochondrial damage and not treated with the extract or the active component thereof. The Intracellular ATP level was measured by the same manner as described above.

[7] = system: cytochrome c oxidase subunit III (COX III); assay: RT-PCR of COX III expression, atrazine-damaged cells; format: cell-based, human; conditions: 1 μg/ml
Description: (§3) Particularly, SH-SY5Y cells were cultured by the same manner as described in Experimental Example <1-2>, and mitochondrial malfunction was induced. Then, the cells with the malfunctioned mitochondria were suspended in TRIzol (Invitrogen, USA) and total RNA was extracted therefrom according to the manufacturer's protocol. […] PCR was performed with GeneAmp PCR system 9700 (Applied Biosystem, USA) under the required optimum condition by using the synthesized cDNA as a template in the presence of the forward and reverse primers listed in Table 5 below, leading to the amplification of COX III and Park? (DJ-1) genes. The amplified PCR products were electrophoresed on 1.5% agarose gel. The relative concentration was measured by using an image densitometer (Alpha Ease FC software; Alpha Innotech, USA) under UV. The level of mRNA was standardized by comparison with the level of 18S rRNA. The normal control was not treated with the extract of the invention or the active component thereof but instead treated with DMSO alone. The negative control was treated with 50 μg/ml of atrazine alone to induce mitochondrial damage and not treated with the extract or the active component thereof. The gene expression level was investigated by the same manner as described above.

Park7 (DJ-1) = assay: RT-PCR of Park7 (DJ-1) expression, atrazine-damaged cells; format: cell-based, human; conditions: 1 μg/ml
Description: as §3

[8] = normal SH-SY5Y cells, 4 hours, calcein

Row | Compound | MTT (% of control) (BV2 cells [1]) | NO (BV2 cells [2]) | iNOS mRNA (% of control) [3] | IL-6 mRNA (% of control) (interleukin-6, (IL-6)) | p65/ReIA mRNA (% of control) (NF-kB p65/ReIA) | DCF-DA-ROS (% of control) (BV2 cells [4]) | Cell survival rate (% of control) [5, 8] | MTT (% of control) [6] | Intracellular ATP content (% of control) (SH-SY5Y cells) | COX III/18S rRNA ([7]; with atrazine) | COX III/18S rRNA ([7]; without atrazine) | Park7(DJ-1)/18S rRNA (Park7 (DJ-1); with atrazine) | Park7(DJ-1)/18S rRNA (Park7 (DJ-1); without atrazine) | Cell survival rate (% of control) ([5]; human, 4 h)
1 | C[C@H]1O[C@@H](O[C@H]2CC[C@@]3(C)[C@@H](CC[C@]4(C)[C@@H]3C=C[C@]35OC[C@@]6(CCC(C)(C)C[C@H]63)[C@@H](O)C[C@]54C)[C@]2(C)CO)[C@H](O)[C@@H](O[C@@H]2O[C@H](CO)[C@@H](O)[C@H](O)[C@H]2O)[C@H]1O [saikosaponin A, (3beta,4alpha,16beta)-13,28-Epoxy-16,23-dihydroxyolean-11-en-3-yl-6-deoxy-3-O-beta-D-glucopyranosyl-beta-D-galactopyranoside] | 91.49 ± 6.20 % of control | 10.8 ± 3.6 µM | 14.85 ± 1.47 % of control | 18.05 ± 1.23 % of control | 40.38 ± 1.05 % of control | 198.24 ± 3.72 % of control | – | – | – | – | – | – | – | –
2 | COc1ccc(C(C)=O)c(O)c1 [Paeonol, 2′-Hydroxy-4′-methoxyacetophenone] | – | – | – | – | – | – | 102.2 ± 9.10 % of control | 101.8 ± 7.21 % of control | 101.9 ± 7.42 % of control | 1.07 ± 0.07 | 1.05 ± 0.03 | 0.95 ± 0.07 | 1.22 ± 0.08 | –
3 | C[C@@]12C[C@@]3(O)O[C@@H](O1)[C@]1(COC(=O)c4ccccc4)[C@H]3C[C@@]12O[C@@H]1O[C@H](CO)[C@@H](O)[C@H](O)[C@H]1O [paeoniflorin] | – | – | – | – | – | – | 97.9 ± 7.34 % of control | 96.4 ± 7.44 % of control | 94.3 ± 6.44 % of control | 0.92 ± 0.08 | 1.11 ± 0.04 | 2.03 ± 0.07 | 1.05 ± 0.08 | –
4 | C[C@@]12CC(=O)[C@H]3C[C@]1(O)O[C@H](O2)[C@@H]3COC(=O)c1ccccc1 [paeoniflorigenone, [(2s,3as,5s,7ar,8s)-3a-hydroxy-7a-methyl-6-oxohexahydro-2,5-methano-1,3-benzodioxol-8-yl]methyl benzoate] | – | – | – | – | – | – | – | 95.5 ± 6.09 % of control | 89.1 ± 7.97 % of control | 0.86 ± 0.07 | 1.04 ± 0.05 | 0.45 ± 0.02 | 0.98 ± 0.08 | 98.9 ± 8.10 % of control
